From article PMC3429785 (Bioconjugate chemistry, 2012)

Experiments:
[1] = test system: HXB2 luciferase reporter pseudovirions (HOS-CD4-CXCR4 target cells); experiment: Pseudovirion infectivity assay, HXB2; type: cell-based, HIV-1; conditions: HXB2 strain
[2] = test system: JRFL luciferase reporter pseudovirions (HOS-CD4-CCR5 target cells); experiment: Pseudovirion infectivity assay, JRFL; type: cell-based, HIV-1; conditions: JRFL strain

## C34-PEG11-Chol: C-peptide (C34) cholesterol conjugate with PEG11 linker
[1]
  additional fold improvement in potency over short PEG2 linker: 2 fold

## C34-PEG80-Chol: C-peptide (C34) cholesterol conjugate with PEG80 linker
[2]
  fold worse than the optimal PEG length: 4 fold

## C34-PEG2-Chol: C-peptide (C34) cholesterol conjugate with short PEG2 linker [reference compound]
[1]
  fold improved potency of cholesterol conjugate compared to C34: ~ 40 fold
